Test results taken from patent publication US20210093637A1, “TOPICAL OINTMENT FORMULATIONS OF PDE-4 INHIBITOR AND THEIR USE IN TREATING SKIN CONDITIONS” (Dermavant Sciences GmbH, priority 2017, published 2021).
Where “and” joins values, the source holds several entries; their conditions need not be identical. Equal entries are not always repeated. Entries after “also recorded” stand apart in the source; their conditions may differ.

Columns and labels:
[1] = tested on: pediatric subjects with mild to moderate atopic dermatitis; test: Phase 2 study in pediatric patients (Example 6), safety (adverse events); format: in vivo, human
Excerpt: Safety Endpoint: Frequency and severity of adverse events (AE; local and systemic).
Analysis Populations: All subjects enrolled in the study who had at least one application of investigational product were included in the Safety Set (SS). This was the population for the safety analyses.
Safety Analyses: The number and proportion of subjects with AEs were summarized by treatment, system organ classification, and preferred term for all adverse events, all adverse events considered by the investigator to be related to study drug, all serious adverse events (SAE), all Common Terminology Criteria for Adverse Events (CTCAE) Grade 3 or higher AEs, and all adverse events leading to study discontinuation. Summaries of AEs were presented separately for the Double-Blind and Open-Label Extension Phases.
Laboratory data were analyzed using descriptive summary statistics and changes from baseline. Categorical safety data were analyzed using frequency tables and, if applicable, shift tables. Vital signs were listed by subjects and summarized by treatment.

[2] = Phase 2 study in pediatric patients (Example 6), plasma concentrations of RVT-501 and M11 at Week 1; format: in vivo, human; settings: for Plasma concentration, Mean (SD) / Plasma concentration, Median / Plasma concentration, Min / Plasma concentration, max / N with concentrations above LLQ (plasma): Week 1 pre-dose, subjects aged 2 to 11 years, twice daily application of RVT-501 0.5%; for N with concentrations above LLQ (plasma): N 16, LLQ 0.25 ng/mL
Protocol: Pharmacokinetic Endpoint: PK analysis for RVT-501 and M11 metabolite at the Week 1 visit in subjects 2 to 11 years old.
Pharmacokinetic Analyses: RVT-501 and M11 were measured in plasma by a validated assay. Plasma concentrations were summarized as continuous variables.
Pharmacokinetic Concentration Results: A single blood sample was collected pre-dose in subjects aged 2 to 11 years old at Week 1 to assess the concentration of RVT-501 and the M11 metabolite in plasma.

[3] = tested on: healthy Japanese male subjects; settings: cited from earlier work
[4] = tested on: Japanese male subjects with AD; settings: ointment 0.01% to 0.2%; cited from earlier work
[5] = tested on: adults with mild to moderate AD; settings: 0.2% ointment BID, 4 weeks; cited from earlier work
[6] = tested on: pediatric subjects aged 2 to 15 years with mild to moderate AD; settings: 0.05% and 0.2% ointment for 2 weeks; cited from earlier work
[7] = single dermal application; stripped skin; non-fasted male rats; cited from earlier work
[8] = Stability of E6005 and M11 in human dried blood spots; format: physicochemical
Protocol: Stability: Following stability of E6005 and M11 in DBS was assessed at low and high concentrations using LQC and HQC samples (three replicates/concentration): bench-top stability for 7 days at room temperature, long-term frozen stability for 160 days […] below −15° C., and processed sample stability for 85 h at 4° C. To investigate impacts of high humidity on the stability, bench-top stability test was performed at room temperature with relative humidity of ca. 80%-84%. Samples were considered stable when % bias from the nominal concentrations was within ±15%.

[9] = Week 1, RVT-501 0.5% twice daily, person two

Q: What does the source list for `CNc1nc(-c2cccc(NC(=O)c3ccc(C(=O)OC)cc3)c2)c2cc(OC)c(OC)cc2n1` [RVT-501, methyl N-[3-(6,7-dimethoxy-2-methylaminoquinazolin-4-yl)phenyl]terephthalamic acid]?
A: subjects with study-drug-related mild application site pruritus ([1]; Double-Blind Phase): 6.1%; safety and tolerability ([1]; human, in vivo): generally safe and well tolerated; subjects who experienced SAE (all deemed not related) ([1]; human, in vivo): two; plasma RVT-501 concentration, Subject 03001 ([2]; Week 1, RVT-501 0.5% twice daily, person one): 1.07 ng/mL; plasma RVT-501 concentration, Subject 05002 [2, 9]: 306 ng/mL and 306.00 ng/mL; plasma RVT-501 concentration, Subject 21001 [2, 9]: above the upper limit of quantification; also recorded: above upper limit of quantitation; Plasma concentration, Mean (SD) [2]: 31.69 (88.531) ng/mL; Plasma concentration, Median [2]: 0 ng/mL; Plasma concentration, Min [2]: 0 ng/mL; Plasma concentration, max [2]: 306.00 ng/mL; N with concentrations above LLQ (plasma) [2]: 3; skin or systemic AEs ([3]; 0.01%-0.2% ointment QD or BID up to 11 days, patch/photopatch): No significant skin or systemic AEs; skin irritation, adverse events, laboratory values, vital signs, ECG, ophthalmological findings ([3]; ointment 0.01% to 0.2%): no clinically-significant findings; skin irritation, adverse events, laboratory values, vital signs, ECG, ophthalmological findings [4]: no clinically-significant findings; tolerability [5]: tolerability was good; adverse events attributable to the investigational product [6]: no adverse events considered attributable to the investigational product; radiolabelled RVT-501 in the skin application site 24 hours after administration, relative to levels after 30 minutes [7]: 75%

Q: For `CNc1nc(-c2cccc(NC(=O)c3ccc(C(=O)O)cc3)c2)c2cc(OC)c(OC)cc2n1` [Formulation M11, 4-((3-(6,7-dimethoxy-2-(methylamino)quinazolin-4-yl)phenyl)carbamoyl)benzoic acid], which “highest plasma M11 concentration (Subject 05002)” value ([2]; Week 1, RVT-501 0.5% twice daily) is on record?
A: 16.90 ng/mL

Q: And the “measurable plasma concentrations of the M11 metabolite (eight subjects out of 16)” value ([2]; Week 1, ages 2-11 years)?
A: near the lower limit of quantitation

Q: What about the “Plasma concentration, Mean (SD)” value [2] of the same compound?
A: 1.50 (4.194) ng/mL

Q: And the “Plasma concentration, Median” value [2]?
A: 0.19 ng/mL

Q: What about the “Plasma concentration, Min” value [2] of the same compound?
A: 0 ng/mL

Q: What about the “Plasma concentration, max” value [2] of the same compound?
A: 16.90 ng/mL

Q: What about the “N with concentrations above LLQ (plasma)” value [2] of the same compound?
A: 8

Q: And the “% bias” value ([8]; Bench-top, after 7 days at RT, HQC (160 ng/mL))?
A: 2.5%

Q: What about the “% bias” value ([8]; Bench-top, after 7 days at RT, LQC (3 ng/mL)) of the same compound?
A: 6.0%

Q: And the “% bias” value ([8]; In processed samples, after 85 h at 4° C., HQC (160 ng/mL))?
A: 0.2%

Q: And the “% bias” value ([8]; In processed samples, after 85 h at 4° C., LQC (1 ng/mL))?
A: 5.9%

Q: And the “% bias” value ([8]; Long-term, after 160 days at RT, HQC (160 ng/mL))?
A: 9.4%

Q: And the “% bias” value ([8]; Long-term, after 160 days at RT, LQC (3 ng/mL))?
A: 0.3%

Q: And the “% bias” value ([8]; Long-term, after 160 days below −15° C., HQC (160 ng/mL))?
A: −1.3%

Q: What about the “% bias” value ([8]; Long-term, after 160 days below −15° C., LQC (3 ng/mL)) of the same compound?
A: −1.3%

Q: And the “% bias” value ([8]; Under high humidity, after 7 days at humidity 80-84%, HQC (160 ng/mL))?
A: −12.5%

Q: And the “% bias” value ([8]; Under high humidity, after 7 days at humidity 80-84%, LQC (3 ng/mL))?
A: −2.3%
